Values quoted from earlier work in article PMC9308844, “Development of new copper-64 labeled rhodamine: a potential PET myocardial perfusion imaging agent” (EJNMMI Radiopharmacy and Chemistry, 2022).

Parameters: method as in earlier work
Details: ref Baranyai et al. [2020]; Clarke et al. 1990; Clarke and Martell [1991a], [b]; Wadas et al. [2010]; Tolmachev et al. [2017]

Log K of Cu^II complex: 21.6
SMILES: O=C([O-])CN1CCN(CC(=O)[O-])CCN(CC(=O)[O-])CC1.[Cu+2] [[Cu^II NOTA]]
